# Measured values: BindingDB's records for doi:10.1016/s0960-894x(98)00660-x (Smithkline Beecham Research Unit, 1999)
# pIC50: −log10 of the molar value.
# Molecular target: V-type proton ATPase (Gallus gallus)
# Test: Compound was measured for the inhibition of bafilomycin-sensitive ATPase activity in partially purified membrane preparation from chicken osteoclast (cOC)
row,pIC50,Structure (SMILES)
1,5.63,CO/C(=C/C=C/c1cc2cc(Cl)c(Cl)cc2[nH]1)C(=O)NC1CC(C)(C)N(C)C(C)(C)C1 [TCMDC-139097]
2,6.18,CO/C(=C\C=C/c1cc2cc(Cl)c(Cl)cc2[nH]1)C(=O)NC1CC(C)(C)N(C)C(C)(C)C1 [TCMDC-139106]
3,7.57,"CO/C(=C\C=C\c1cc2cc(Cl)c(Cl)cc2[nH]1)C(=O)NC1CC(C)(C)N(C)C(C)(C)C1 [(2Z,4E)-5-(5,6-Dichloro-1H-indol-2-yl)-2-methoxy-penta-2,4-dienoic acid (1,2,2,6,6-pentamethyl-piperidin-4-yl)-amide]"
